Where a SMILES comes first, the peptide text is derived from it. Bridges are numbered along the chain shown (N, C = ends). [ ]: non-standard residue; d: D form. The star is where a group is joined. Pentanoyl(5-guanidino) = NC(N)=NCCCCC(=O)*; dNle = CCCC[C@@H](N)C(=O)O; Nle = CCCC[C@H](N)C(=O)O; Ava = NCCCCC(=O)O; βAla = NCCC(=O)O
Columns and labels:
[1] = target: T1, rat MCH-1R (Rattus norvegicus, UniProt P97639); assay: Aequorin bioluminescence functional assay, MCH-1R agonist activity; conditions: for MCH-1R Agonist Activation %: 293-AEQ17 cells expressing rat MCH-1R
[2] = target: human MCH-2R (Homo sapiens, UniProt Q969V1); assay: Aequorin bioluminescence functional assay, MCH-2R agonist activity; conditions: for MCH-2R Agonist Activation %: 293-AEQ17 cells expressing human MCH-2R
[3] = target: human MCH-1R (Homo sapiens, UniProt Q99705); assay: MCH-1R binding assay, inhibition of [125I]-human MCH binding to membranes
Procedure: Cell membranes were prepared on ice. Each T-75 flask was rinsed twice with 10 ml of Enzyme-free Cell Dissociation Buffer (Specialty Media, Lavallette, N.J.), and the cell monolayer was detached in an additional 10 ml of Enzyme-free Cell Dissociation Buffer by incubation at room temperature for 10 minutes. Dissociated cells were centrifuged (500×g for 10 minutes at 4° C.), resuspended in 5 ml homogenization buffer (10 mM Tris-HCl, pH 7.4, 0.01 mM Pefabloc, 10 μM phosphoramidon, 40 μg/ml bacitracin) and then homogenized using a glass homogenizer (10-15 strokes). The homogenate was centrifuged for 10 minutes (1,000×g at 4° C.). The resulting supernatant was then centrifuged at 38,700×g for 15 minutes at 4° C. Pelleted membranes were resuspended (passed through 25 gauge needle 5 times), snap-frozen on liquid nitrogen, and stored at −80° C. until use.
Bound radioligand was separated by rapid vacuum filtration (Packard Filtermate 96-well cell harvester) through GF/C filters pretreated for 1 hour with 1% polyethylenimine. After application of the membrane suspension to the filter, the filters were washed 3 times with 3 ml each of ice-cold 50 mM Tris-HCl, pH 7.4, 10 mM MgCl2, 2 mM EDTA, 0.04% Tween 20 and the bound radioactivity on the filters was quantitated by scintillation counting (TopCount device).
For the SPA-based assay, WGA-PVT beads (NEN Life Sciences Products) were resuspended in Dulbecco's PBS with calcium and magnesium (500 mg beads in 4 ml PBS). […] The suspension was mixed gently for 20 minutes, 12.3 ml of assay buffer and protease inhibitors were added (final concentration given): 2 μg/ml leupeptin, 10 μM phosphoramidon, 40 μg/ml bacitracin, 5 μg/ml aprotinin, 0.1 mM Pefabloc.
Coated beads were kept on ice until use.

[4] = target: T1, rat MCH-1R; assay: Antagonist assay, 293-AEQ17 cells expressing rat MCH-1R; format: cell-based; set-up: expressed in transfected cells; host or cells: 293-AEQ17 (aequorin-expressing HEK-293 reporter line); conditions: for Kb: determined per Trends in Pharmacol. Sci. 14:237-239, 1993
Procedure: Cells were grown in DMEM (high glucose) supplemented with 10% FBS (Hyclone), 500 μg/ml G418, 200 μg/ml hygromycin and 25 mM HEPES in T75 flasks.
The assay itself involved charging apoaequorin with coelenterazine cp(Molecular Probes, C-14260) and was performed as follows:
1. Confluent T75 flasks are rinsed 1× with 12 ml Hams F12 medium+300 μM glutathione+0.1% FBS.
2. The cells were charged by adding 8 ml Hams F12+0.1% FBS+300 μM glutathione+10 μM coelenterazine, incubate at 37° C. for 1 hour.
4. ECB (6 ml) is added to the flask and the cells are dissociated with a rubber-tipped scraper, centrifuged for 5 minutes at 2500 rpm and the cell pellet resuspended in 5 ml ECB. The cells are counted and diluted to 5×10^5/ml.
Binding and agonist activity at the MCH-1R and MCH-2R was determined as described in Examples 2 and 3. Antagonist IC50 was determined as described in Example 4. Kb was determined using the procedures described in Trends in Pharmacol. Sci. 14:237-239, 1993.

Sequence of human MCH-2R (Q969V1 whole entry): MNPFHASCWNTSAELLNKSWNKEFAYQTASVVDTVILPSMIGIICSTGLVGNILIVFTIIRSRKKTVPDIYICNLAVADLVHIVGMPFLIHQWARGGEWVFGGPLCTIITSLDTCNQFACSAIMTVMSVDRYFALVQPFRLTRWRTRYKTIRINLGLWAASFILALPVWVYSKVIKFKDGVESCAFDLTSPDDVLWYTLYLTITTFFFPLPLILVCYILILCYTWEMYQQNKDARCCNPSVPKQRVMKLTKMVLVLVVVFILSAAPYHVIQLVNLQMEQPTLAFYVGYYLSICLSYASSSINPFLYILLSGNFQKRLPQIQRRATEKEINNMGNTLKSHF
T1 sequence (P97639 whole entry): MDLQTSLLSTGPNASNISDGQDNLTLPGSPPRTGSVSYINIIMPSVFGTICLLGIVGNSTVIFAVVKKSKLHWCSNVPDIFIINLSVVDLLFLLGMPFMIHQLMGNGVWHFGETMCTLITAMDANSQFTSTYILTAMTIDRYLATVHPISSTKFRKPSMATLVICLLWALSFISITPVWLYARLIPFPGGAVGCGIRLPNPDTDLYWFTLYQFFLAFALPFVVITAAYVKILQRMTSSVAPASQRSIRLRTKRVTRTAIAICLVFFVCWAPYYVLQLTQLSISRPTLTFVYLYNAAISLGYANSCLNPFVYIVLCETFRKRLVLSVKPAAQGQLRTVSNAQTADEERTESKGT
Sequence of human MCH-1R (Q99705 whole entry): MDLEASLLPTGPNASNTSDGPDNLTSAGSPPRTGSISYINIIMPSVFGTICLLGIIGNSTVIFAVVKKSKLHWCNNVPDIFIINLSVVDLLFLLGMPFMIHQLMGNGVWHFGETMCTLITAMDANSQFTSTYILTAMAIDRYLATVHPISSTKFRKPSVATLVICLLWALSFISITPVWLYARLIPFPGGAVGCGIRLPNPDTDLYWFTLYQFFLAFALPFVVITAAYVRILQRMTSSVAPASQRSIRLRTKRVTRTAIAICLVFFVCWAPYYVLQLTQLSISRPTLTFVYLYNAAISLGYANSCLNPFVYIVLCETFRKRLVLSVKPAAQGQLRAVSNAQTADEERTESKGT

| SMILES | EC50 [1] [µM] | MCH-1R Agonist Activation % [1] [%] | EC50 [2] [µM] | MCH-2R Agonist Activation % [2] [%] | IC50 [3] [nM] | IC50 [4] [nM] | Kb [4] [nM] | MCH-1R Binding, % @ concentration ([3]; @ 10 (concentration unit not given), in the IC50 (nM) column) [% @ 10] |
| --- | --- | --- | --- | --- | --- | --- | --- | --- |
| CSCC[C@@H]1NC(=O)[C@@H](NC(=O)CCCCNC(=N)N)CSSC[C@@H](C(N)=O)NC(=O)CCCCNC(=O)CCCCNC(=O)[C@H](Cc2ccc(O)cc2)NC(=O)[C@H](C(C)C)NC(=O)[C@H](CCCNC(=N)N)NC(=O)CNC(=O)[C@H](CC(C)C)NC1=O [SEQ. ID. NO. 11] | > 10 | 3 | > 10 | 91 | 3 | 2.9 | 1.25 |  |
| CSCC[C@@H]1NC(=O)[C@@H](NC(=O)CCCCNC(=N)N)CSSC[C@@H](C(N)=O)NC(=O)CCCNC(=O)CCCNC(=O)[C@H](Cc2ccc(O)cc2)NC(=O)[C@H](C(C)C)NC(=O)[C@H](CCCNC(=N)N)NC(=O)CNC(=O)[C@H](CC(C)C)NC1=O [SEQ. ID. NO. 13] | > 10 | 3.5 | > 10 | 35 | 49 | 6.84 | 3 |  |
| CSCC[C@@H]1NC(=O)[C@@H](NC(=O)CCCCNC(=N)N)CSSC[C@@H](C(N)=O)NC(=O)CCNC(=O)CCNC(=O)[C@H](Cc2ccc(O)cc2)NC(=O)[C@H](C(C)C)NC(=O)[C@H](CCCNC(=N)N)NC(=O)CNC(=O)[C@H](CC(C)C)NC1=O [SEQ. ID. NO. 14] | > 10 | 3.6 | > 10 | 32 | 176 | 6.8 | 3 |  |
| CCCC[C@@H]1NC(=O)[C@@H](NC(=O)CCCCNC(=N)N)CSSC[C@@H](C(N)=O)NC(=O)CCCCNC(=O)CCCCNC(=O)[C@H](Cc2ccc(O)cc2)NC(=O)[C@H](C(C)C)NC(=O)[C@H](CCCNC(=N)N)NC(=O)CNC(=O)[C@H](CC(C)C)NC1=O [SEQ. ID. NO. 16] ({Pentanoyl(5-guanidino)}-C[Nle]LGRVY[Ava][Ava]C-NH2; disulfide 1-10; C-terminus assumed) | > 10 | 3 | > 10 | 59 | 11 | 13.8 | 6 |  |
| CSCC[C@@H]1NC(=O)[C@@H](NC(=O)CCCCNC(=N)N)CSSC[C@@H](C(=O)O)NC(=O)CCCCNC(=O)CCCCNC(=O)[C@H](Cc2ccc(O)cc2)NC(=O)[C@H](C(C)C)NC(=O)[C@H](CCCNC(=N)N)NC(=O)CNC(=O)[C@H](CC(C)C)NC1=O [SEQ. ID. NO. 18] | > 10 | 3.8 | > 10 | 38 | 290 | 75.7 | 32.9 |  |
| CC(C)C[C@@H]1NC(=O)[C@H](C)NC(=O)[C@@H](NC(=O)CCCCNC(=N)N)CSSC[C@@H](C(N)=O)NC(=O)CCCCNC(=O)CCCCNC(=O)[C@H](Cc2ccc(O)cc2)NC(=O)[C@H](C(C)C)NC(=O)[C@H](CCCNC(=N)N)NC(=O)CNC1=O [SEQ. ID. NO. 19] ({Pentanoyl(5-guanidino)}-CALGRVY[Ava][Ava]C-NH2; disulfide 1-10 (inferred); C-terminus assumed) | > 10 |  | > 10 | 45 | 140 | 67 | 29 |  |
| CSCC[C@@H]1NC(=O)[C@@H](NC(=O)CCCCNC(=N)N)CSSC[C@@H](C(N)=O)NC(=O)CCCCNC(=O)CCCCNC(=O)[C@H](Cc2ccc(O)cc2)NC(=O)[C@H](C)NC(=O)[C@H](CCCNC(=N)N)NC(=O)CNC(=O)[C@H](CC(C)C)NC1=O [SEQ. ID. NO. 20] ({Pentanoyl(5-guanidino)}-CMLGRAY[Ava][Ava]C-NH2; disulfide 1-10; C-terminus assumed) | > 10 | 3.4 | > 10 | 38 | 29 | 4.7 | 2 |  |
| CCCC[C@H]1NC(=O)[C@H](CC(C)C)NC(=O)[C@H](CCSC)NC(=O)[C@@H](NC(=O)[C@H](CCCNC(=N)N)NC(C)=O)CSSC[C@@H](C(N)=O)NC(=O)CCCCNC(=O)CCCCNC(=O)[C@H](Cc2ccc(O)cc2)NC(=O)[C@H](C(C)C)NC(=O)[C@H](CCCNC(=N)N)NC1=O [SEQ. ID. NO. 26] (Ac-RCML[dNle]RVY[Ava][Ava]C-NH2; disulfide 2-11; C-terminus assumed) | 0.544 | 43 | > 10 | 91 | 223 |  |  |  |
| CCCC[C@H]1NC(=O)[C@H](CC(C)C)NC(=O)[C@H](CCSC)NC(=O)[C@@H](NC(=O)CCCCNC(=N)N)CSSC[C@@H](C(N)=O)NC(=O)CCCCNC(=O)CCCCNC(=O)[C@H](Cc2ccc(O)cc2)NC(=O)[C@H](C(C)C)NC(=O)[C@H](CCCNC(=N)N)NC1=O [SEQ. ID. NO. 27] ({Pentanoyl(5-guanidino)}-CML[dNle]RVY[Ava][Ava]C-NH2; disulfide 1-10; C-terminus assumed) | > 10 | 3 | > 10 | 91 | 28 | 5.4 | 2.4 |  |
| CSCC[C@@H]1NC(=O)[C@@H](NC(=O)[C@H](CCCNC(=N)N)NC(C)=O)CSSC[C@@H](C(N)=O)NC(=O)CCCCNC(=O)CCCCNC(=O)[C@H](Cc2ccc(O)cc2)NC(=O)[C@H](C(C)C)NC(=O)[C@H](CCCNC(=N)N)NC(=O)CCCCNC(=O)CCCCNC1=O [SEQ. ID. NO. 30] (Ac-RCM[Ava][Ava]RVY[Ava][Ava]C-NH2; disulfide 2-11 (inferred); C-terminus assumed) | > 10 | 3 | > 10 | 16 | 88 | 10.6 | 4.6 |  |
| CSCC[C@@H]1NC(=O)[C@@H](NC(=O)[C@H](CCCNC(=N)N)NC(C)=O)CSSC[C@@H](C(N)=O)NC(=O)CCNC(=O)CCNC(=O)[C@H](Cc2ccc(O)cc2)NC(=O)[C@H](C(C)C)NC(=O)[C@H](CCCNC(=N)N)NC(=O)CCNC(=O)CCNC1=O [SEQ. ID. NO. 31] (Ac-RCM[βAla][βAla]RVY[βAla][βAla]C-NH2; disulfide 2-11) | > 10 | 3 | > 10 | 6 |  |  |  | 76 |
| CSCC[C@@H]1NC(=O)[C@@H](NC(=O)CCCCNC(=N)N)CSSC[C@@H](C(N)=O)NC(=O)CCCCNC(=O)CCCCNC(=O)[C@H](Cc2ccc(O)cc2)NC(=O)[C@H](C(C)C)NC(=O)[C@H](CCCNC(=N)N)NC(=O)CCCCNC(=O)CCCCNC1=O [SEQ. ID. NO. 32] ({Pentanoyl(5-guanidino)}-CM[Ava][Ava]RVY[Ava][Ava]C-NH2; disulfide 1-10; C-terminus assumed) | > 10 | 3 | > 10 | 91 | 62 | 56 | 24 |  |
| C[C@@H]1NC(=O)[C@@H](NC(=O)CCCCNC(=N)N)CSSC[C@@H](C(=O)O)NC(=O)CCCCNC(=O)CCCCNC(=O)[C@H](Cc2ccc(O)cc2)NC(=O)[C@H](C)NC(=O)[C@H](CCCNC(=N)N)NC(=O)CCCCNC(=O)CCCCNC1=O [SEQ. ID. NO. 34] ({Pentanoyl(5-guanidino)}-CA[Ava][Ava]RAY[Ava][Ava]C-OH; disulfide 1-10) | > 10 | 0.1 | > 10 | 28 | > 1000 |  |  |  |
| CCCC[C@@H]1NC(=O)[C@@H](NC(=O)CCCCNC(=N)N)CSSC[C@@H](C(=O)O)NC(=O)CCCCNC(=O)CCCCNC(=O)[C@H](Cc2ccc(O)cc2)NC(=O)[C@H](C)NC(=O)[C@H](CCCNC(=N)N)NC(=O)CCCCNC(=O)CCCCNC1=O [SEQ. ID. NO. 35] ({Pentanoyl(5-guanidino)}-C[Nle][Ava][Ava]RAY[Ava][Ava]C-OH; disulfide 1-10) | > 10 | 0.1 | > 10 | 25 | > 1000 |  |  |  |
| CC(C)[C@@H]1NC(=O)[C@H](CCCNC(=N)N)NC(=O)CCCCNC(=O)CCCCNC(=O)CCCCNC(=O)[C@@H](NC(=O)CCCCNC(=N)N)CSSC[C@@H](C(N)=O)NC(=O)CCCCNC(=O)CCCCNC(=O)[C@H](Cc2ccc(O)cc2)NC1=O [SEQ. ID. NO. 36] | > 10 | 0.1 | > 10 | 24 | > 1000 |  |  |  |

Reference: US7335723B2, “Melanin-concentrating hormone antagonists” (priority 2001, dated 2008)
